This note sets out measurements from patent publication US20260325533A1, “CDK INHIBITOR COMPOUNDS” (ALEKSIA THERAPEUTICS, INC., priority 2023, published 2026).

Like-named read-outs stand apart in the source and are kept apart here. Bounds are passed on as bounds.

Type in all cases: biochemical
Assay [1] concerns the target CDK6/CCND1 (Homo sapiens, UniProt Q00534). As to the kind of experiment: CDK6 homogeneous time-resolved fluorescence (HTRF) kinase assay. The conditions noted are these: CDK6/CCND. In a few lines:
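Recombinant CDK6/CCND1 (1 nM final) was preincubated with compound for 20 min at 23 °C in HEPES buffer with MgCl2, EGTA, DTT and Tween 20. Kinase reaction then ran 60 min at 23 °C with 1 mM ATP and 50 nM ULight-4E-BP1 (Thr37/46) peptide, and was stopped with EDTA.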

In assay [2] the target is CDK1/CCNB1 (Homo sapiens, UniProt P06493). As to the kind of experiment: CDK1 homogeneous time-resolved fluorescence (HTRF) kinase assay. The conditions noted are these: CDK1/CCNB. The method, boiled down: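 Compounds, titrated 11 points in half-log steps typically from 10 μM, were incubated with enzyme for 20 min before ATP (1 mM) and ULight-labelled eIF4E-binding protein 1 peptide (50 nM) started a 60-min reaction at 23 °C. Phosphopeptide was detected by europium-antibody TR-FRET and IC50 values were derived.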
Sequence of CDK1/CCNB1 (P06493 whole entry): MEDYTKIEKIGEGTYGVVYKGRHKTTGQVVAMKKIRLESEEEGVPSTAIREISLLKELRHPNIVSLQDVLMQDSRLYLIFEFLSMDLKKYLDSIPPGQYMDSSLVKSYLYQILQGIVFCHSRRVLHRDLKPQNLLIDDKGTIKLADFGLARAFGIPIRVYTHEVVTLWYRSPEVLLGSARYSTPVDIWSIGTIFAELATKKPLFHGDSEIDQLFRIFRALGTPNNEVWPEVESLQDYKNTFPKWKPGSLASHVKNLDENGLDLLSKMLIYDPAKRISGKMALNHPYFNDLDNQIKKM
Sequence of CDK1/CCNB1 (P14635 whole entry partner): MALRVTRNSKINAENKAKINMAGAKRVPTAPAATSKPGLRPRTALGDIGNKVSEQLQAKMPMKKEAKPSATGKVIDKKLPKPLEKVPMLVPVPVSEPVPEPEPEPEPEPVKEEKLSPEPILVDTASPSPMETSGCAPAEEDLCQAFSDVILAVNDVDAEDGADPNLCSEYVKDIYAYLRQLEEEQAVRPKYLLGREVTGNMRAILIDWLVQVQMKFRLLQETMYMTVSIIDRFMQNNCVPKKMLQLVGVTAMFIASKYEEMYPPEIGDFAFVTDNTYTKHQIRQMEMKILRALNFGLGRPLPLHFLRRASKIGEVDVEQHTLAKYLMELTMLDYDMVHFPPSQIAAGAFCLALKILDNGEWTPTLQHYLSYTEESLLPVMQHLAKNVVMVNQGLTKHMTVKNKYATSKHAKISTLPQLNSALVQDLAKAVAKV

In assay [3] the target is CDK2/CCNE1 (Homo sapiens, UniProt P24941). Nature of the assay: CDK2 homogeneous time-resolved fluorescence (HTRF) kinase assay. The following applies: CDK2/CCNE. The method, boiled down:
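IC50 derived from 11-point, half-log dilutions (usually top 10 μM) of compound, 1% DMSO. Kinase (3 nM CDK2/CCNE1) was preincubated with compound 20 min, then phosphorylated 50 nM ULight-4E-BP1 peptide at 1 mM ATP for 60 min, 23 °C. Europium-antibody TR-FRET read after EDTA stop.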

Assay [4] deals with CDK4/CCND3 (Homo sapiens, UniProt P11802). As to the kind of experiment: CDK4 homogeneous time-resolved fluorescence (HTRF) kinase assay. The conditions noted are these: CDK4/CCND. In a few lines:
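HTRF kinase assay, CDK4/CCND3 1.5 nM, ATP 1 mM, ULight-4E-BP1 peptide 50 nM, 23 °C, 60 min reaction after 20 min preincubation. Eu-anti-pThr37/46 antibody detection. 11-pt half-log curves from 10 μM → IC50.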

[5] abbreviates: x = IC50 >250 nM, read-out: CDK6/CCND IC50 (>250 nM column).
Setting [6] is: x = IC50 >250 nM, read-out: CDK1/CCNB IC50 (>250 nM column).
Setting [7] is: x = IC50 25-250 nM, read-out: CDK2/CCNE IC50 (25-250 nM).
Setting [8] is: x = IC50 >250 nM, read-out: CDK4/CCND IC50 (>250 nM column).
The mark [9] stands for this setting: x = IC50 <25 nM, read-out: CDK2/CCNE IC50 (<25 nM).
The mark [10] stands for this setting: x = IC50 25-250 nM, read-out: CDK1/CCNB IC50 (25-250 nM).
The mark [11] stands for this setting: x = IC50 25-250 nM, read-out: CDK6/CCND IC50 (25-250 nM).
Where [12] appears, read: x = IC50 25-250 nM, read-out: CDK4/CCND IC50 (25-250 nM).
Setting [13] is: x = IC50 <25 nM, read-out: CDK1/CCNB IC50 (<25 nM).

Sequence of CDK4/CCND3 (P11802 whole entry): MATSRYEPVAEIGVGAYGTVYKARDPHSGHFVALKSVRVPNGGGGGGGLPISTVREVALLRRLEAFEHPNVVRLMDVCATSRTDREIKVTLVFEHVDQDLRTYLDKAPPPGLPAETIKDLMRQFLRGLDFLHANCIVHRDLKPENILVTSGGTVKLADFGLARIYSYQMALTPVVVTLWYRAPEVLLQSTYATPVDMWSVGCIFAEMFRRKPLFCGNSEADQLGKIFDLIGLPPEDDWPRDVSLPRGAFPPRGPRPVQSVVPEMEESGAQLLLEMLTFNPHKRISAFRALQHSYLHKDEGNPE
Sequence of CDK4/CCND3 (P30281 whole entry partner): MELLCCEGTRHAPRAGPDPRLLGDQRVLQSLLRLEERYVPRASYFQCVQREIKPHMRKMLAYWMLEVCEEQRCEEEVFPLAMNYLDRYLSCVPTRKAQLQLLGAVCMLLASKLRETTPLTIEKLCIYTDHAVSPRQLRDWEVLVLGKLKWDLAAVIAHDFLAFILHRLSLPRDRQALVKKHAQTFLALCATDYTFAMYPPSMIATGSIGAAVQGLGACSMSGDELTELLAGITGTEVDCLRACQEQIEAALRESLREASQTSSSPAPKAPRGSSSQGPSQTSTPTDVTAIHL
Sequence of CDK6/CCND1 (Q00534 whole entry): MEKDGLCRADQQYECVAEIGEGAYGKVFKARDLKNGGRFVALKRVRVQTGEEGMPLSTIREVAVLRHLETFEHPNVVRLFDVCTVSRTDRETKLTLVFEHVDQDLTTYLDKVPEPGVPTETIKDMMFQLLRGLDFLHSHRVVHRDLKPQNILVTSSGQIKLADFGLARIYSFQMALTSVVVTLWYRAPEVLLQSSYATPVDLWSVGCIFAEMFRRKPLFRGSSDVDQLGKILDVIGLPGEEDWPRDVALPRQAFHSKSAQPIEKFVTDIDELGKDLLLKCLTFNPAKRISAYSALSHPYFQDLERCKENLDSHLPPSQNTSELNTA
Sequence of CDK6/CCND1 (P24385 whole entry partner): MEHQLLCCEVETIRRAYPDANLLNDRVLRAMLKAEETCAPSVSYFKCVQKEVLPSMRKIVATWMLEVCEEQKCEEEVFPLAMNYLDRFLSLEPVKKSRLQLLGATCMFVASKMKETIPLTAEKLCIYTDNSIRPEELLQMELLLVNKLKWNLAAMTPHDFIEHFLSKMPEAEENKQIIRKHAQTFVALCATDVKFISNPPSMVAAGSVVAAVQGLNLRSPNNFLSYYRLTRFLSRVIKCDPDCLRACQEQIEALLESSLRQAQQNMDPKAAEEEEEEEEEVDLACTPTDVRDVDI

As for `CS(=O)(=O)c1ccc(Nc2cc3c(C#Cc4cccnc4N)nccc3cn2)c(F)c1` [Ex 418, 5-((2-aminopyridin-3-yl)ethynyl)-N-(2-fluoro-4-(methylsulfonyl)phenyl)-2,6-naphthyridin-3-amine], the IC50 is more than 250 nM in assay [1] (setting [5]), more than 250 nM in assay [2] (setting [6]), 25 to 250 nM in assay [3] (setting [7]) and more than 250 nM in assay [4] (setting [8]).

Turning to `CS(=O)(=O)c1ccc(Nc2cc3c(C#Cc4cccnc4N)nccc3cn2)nc1` [Ex 419, 5-((2-aminopyridin-3-yl)ethynyl)-N-(5-(methylsulfonyl)pyridin-2-yl)-2,6-naphthyridin-3-amine], the IC50 in assay [1] (setting [5]) was more than 250 nM; in assay [2] (setting [6]) it was more than 250 nM; in assay [3] (setting [7]), 25 to 250 nM; in assay [4] (setting [8]), more than 250 nM.

On to `Cc1cc(S(C)(=O)=O)ccc1Nc1cc2c(C#Cc3cccnc3N)nccc2cn1` [Ex 420, 5-((2-aminopyridin-3-yl)ethynyl)-N-(2-methyl-4-(methylsulfonyl)phenyl)-2,6-naphthyridin-3-amine], for which the IC50 in assay [1] (setting [5]) was more than 250 nM; in assay [2] (setting [6]) it was more than 250 nM; in assay [3] (setting [7]) it was 25 to 250 nM; in assay [4] (setting [8]) it was more than 250 nM.

On to `CC1(C)C(=O)Nc2cc(C#Cc3nccc4cnc(Nc5ccc(S(C)(=O)=O)c(F)c5)cc34)ccc21` [Ex 422, 6-((7-((3-fluoro-4-(methylsulfonyl)phenyl)amino)-2,6-naphthyridin-1-yl)ethynyl)-3,3-dimethylindolin-2-one], for which the IC50 in assay [1] (setting [5]) is more than 250 nM; in assay [2] (setting [6]) it was more than 250 nM; in assay [3] (setting [9]), less than 25 nM; in assay [4] (setting [8]), more than 250 nM.

For the compound `CC1(C)C(=O)Nc2cc(C#Cc3nccc4cnc(Nc5ccc(S(C)(=O)=O)cc5Cl)cc34)ccc21` [Ex 423, 6-((7-((2-chloro-4-(methylsulfonyl)phenyl)amino)-2,6-naphthyridin-1-yl)ethynyl)-3,3-dimethylindolin-2-one], the IC50 was more than 250 nM in assay [1] (setting [5]), more than 250 nM in assay [2] (setting [6]), less than 25 nM in assay [3] (setting [9]) and more than 250 nM in assay [4] (setting [8]).

As to `Cc1cc(S(C)(=O)=O)ccc1Nc1cc2c(C#Cc3ccc4c(c3)NC(=O)C4(C)C)nccc2cn1` [Ex 424, 3,3-dimethyl-6-((7-((2-methyl-4-(methylsulfonyl)phenyl)amino)-2,6-naphthyridin-1-yl)ethynyl)indolin-2-one], the IC50 was more than 250 nM in assay [1] (setting [5]), 25 to 250 nM in assay [2] (setting [10]), less than 25 nM in assay [3] (setting [9]) and more than 250 nM in assay [4] (setting [8]).

`CC1(C)C(=O)Nc2cc(C#Cc3nccc4cnc(Nc5ccc(S(C)(=O)=O)nc5)cc34)ccc21` [Ex 425, 3,3-dimethyl-6-((7-((6-(methylsulfonyl)pyridin-3-yl)amino)-2,6-naphthyridin-1-yl)ethynyl)indolin-2-one]: the IC50 in assay [1] (setting [5]) was more than 250 nM; in assay [2] (setting [6]), more than 250 nM; in assay [3] (setting [7]), 25 to 250 nM; in assay [4] (setting [8]), more than 250 nM.

In the case of `CCC1(CC)C(=O)Nc2cc(C#Cc3nccc4cnc(Nc5ccc(S(=O)(=O)C(C)C)cc5)cc34)ccc21` [Ex 429, 3,3-diethyl-6-((7-((4-(isopropylsulfonyl)phenyl)amino)-2,6-naphthyridin-1-yl)ethynyl)indolin-2-one], the IC50 was more than 250 nM in assay [1] (setting [5]), more than 250 nM in assay [2] (setting [6]), less than 25 nM in assay [3] (setting [9]) and more than 250 nM in assay [4] (setting [8]).

Consider `CCC1(CC)C(=O)Nc2cc(C#Cc3nccc4cnc(Nc5ccc(S(=O)(=O)CC)cc5)cc34)ccc21` [Ex 430, 3,3-diethyl-6-((7-((4-(ethylsulfonyl)phenyl)amino)-2,6-naphthyridin-1-yl)ethynyl)indolin-2-one], for which the IC50 was more than 250 nM in assay [1] (setting [5]), more than 250 nM in assay [2] (setting [6]), less than 25 nM in assay [3] (setting [9]) and more than 250 nM in assay [4] (setting [8]).

With `CN1CCC(NS(=O)(=O)c2ccc(Nc3cc4c(C#Cc5cccnc5N)nccc4cn3)cc2)CC1` [Ex 432, 4-((5-((2-aminopyridin-3-yl)ethynyl)-2,6-naphthyridin-3-yl)amino)-N-(1-methylpiperidin-4-yl)benzenesulfonamide], the IC50 is 25 to 250 nM in assay [1] (setting [11]), 25 to 250 nM in assay [2] (setting [10]), less than 25 nM in assay [3] (setting [9]) and 25 to 250 nM in assay [4] (setting [12]).

Regarding `Nc1ncccc1C#Cc1nccc2cnc(Nc3ccc(S(=O)(=O)NC4CCNCC4)cc3)cc12` [Ex 433, 4-((5-((2-aminopyridin-3-yl)ethynyl)-2,6-naphthyridin-3-yl)amino)-N-(piperidin-4-yl)benzenesulfonamide], the IC50 in assay [1] (setting [11]) is 25 to 250 nM; in assay [2] (setting [10]), 25 to 250 nM; in assay [3] (setting [9]), less than 25 nM; in assay [4] (setting [12]), 25 to 250 nM.

On to `Nc1ncccc1C#Cc1nccc2cnc(Nc3ccc(S(=O)(=O)NC4CCOCC4)cc3)cc12` [Ex 434, 4-((5-((2-aminopyridin-3-yl)ethynyl)-2,6-naphthyridin-3-yl)amino)-N-(tetrahydro-2H-pyran-4-yl)benzenesulfonamide], for which the IC50 in assay [1] (setting [5]) was more than 250 nM; in assay [2] (setting [6]), more than 250 nM; in assay [3] (setting [9]), less than 25 nM; in assay [4] (setting [8]) it was more than 250 nM.

As to `Nc1ncccc1C#Cc1nccc2cnc(Nc3ccc(S(=O)(=O)NC4CC4)cc3)cc12` [Ex 435, 4-((5-((2-aminopyridin-3-yl)ethynyl)-2,6-naphthyridin-3-yl)amino)-N-cyclopropylbenzenesulfonamide], the IC50 in assay [1] (setting [5]) was more than 250 nM; in assay [2] (setting [10]), 25 to 250 nM; in assay [3] (setting [9]) it was less than 25 nM; in assay [4] (setting [8]) it was more than 250 nM.

Regarding `CC1(C)C(=O)Nc2cc(C#Cc3nccc4cnc(Nc5ccc(S(C)(=O)=O)cn5)cc34)ccc21` [Ex 439, 3,3-dimethyl-6-((7-((5-(methylsulfonyl)pyridin-2-yl)amino)-2,6-naphthyridin-1-yl)ethynyl)indolin-2-one], the IC50 in assay [1] (setting [5]) is more than 250 nM; in assay [2] (setting [10]), 25 to 250 nM; in assay [3] (setting [9]), less than 25 nM; in assay [4] (setting [8]) it was more than 250 nM.

Consider `COc1cc(S(C)(=O)=O)ccc1Nc1cc2c(C#Cc3ccc4c(c3)NC(=O)C4(C)C)nccc2cn1` [Ex 440, 6-((7-((2-methoxy-4-(methylsulfonyl)phenyl)amino)-2,6-naphthyridin-1-yl)ethynyl)-3,3-dimethylindolin-2-one], for which the IC50 was more than 250 nM in assay [1] (setting [5]), more than 250 nM in assay [2] (setting [6]), less than 25 nM in assay [3] (setting [9]) and more than 250 nM in assay [4] (setting [8]).

Take `CC1(C)C(=O)Nc2cc(C#Cc3nccc4cnc(Nc5ccc(S(=O)(=O)NC6CCNCC6)cc5)cc34)ccc21` [Ex 442, 4-((5-((3,3-dimethyl-2-oxoindolin-6-yl)ethynyl)-2,6-naphthyridin-3-yl)amino)-N-(piperidin-4-yl)benzenesulfonamide]: the IC50 is 25 to 250 nM in assay [1] (setting [11]); less than 25 nM in assay [2] (setting [13]); less than 25 nM in assay [3] (setting [9]); less than 25 nM in assay [4] (x = IC50 <25 nM, read-out: CDK4/CCND IC50 (<25 nM)).

For the compound `CC1(C)C(=O)Nc2cc(C#Cc3nccc4cnc(Nc5ccc(S(=O)(=O)NC6CCOCC6)cc5)cc34)ccc21` [Ex 443, 4-((5-((3,3-dimethyl-2-oxoindolin-6-yl)ethynyl)-2,6-naphthyridin-3-yl)amino)-N-(tetrahydro-2H-pyran-4-yl)benzenesulfonamide], the IC50 was more than 250 nM in assay [1] (setting [5]), 25 to 250 nM in assay [2] (setting [10]), less than 25 nM in assay [3] (setting [9]) and 25 to 250 nM in assay [4] (setting [12]).

For the compound `CC1(C)C(=O)Nc2cc(C#Cc3nccc4cnc(Nc5ccc(S(=O)(=O)C6CC6)cc5)cc34)ccc21` [Ex 444, 6-((7-((4-(cyclopropylsulfonyl)phenyl)amino)-2,6-naphthyridin-1-yl)ethynyl)-3,3-dimethylindolin-2-one], the IC50 is more than 250 nM in assay [1] (setting [5]), less than 25 nM in assay [2] (setting [13]), less than 25 nM in assay [3] (setting [9]) and 25 to 250 nM in assay [4] (setting [12]).

Regarding `CS(=O)(=O)c1ccc(Nc2cc3c(C#Cc4ccc5c(c4)NC(=O)C54CC4)nccc3cn2)cc1` [Ex 445, 6'-((7-((4-(methylsulfonyl)phenyl)amino)-2,6-naphthyridin-1-yl)ethynyl)spiro[cyclopropane-1,3'-indolin]-2'-one], the IC50 is 25 to 250 nM in assay [1] (setting [11]), 25 to 250 nM in assay [2] (setting [10]), less than 25 nM in assay [3] (setting [9]) and 25 to 250 nM in assay [4] (setting [12]).
